In the NIST ThermoML archive (doi:10.1016/j.jct.2017.06.008):

Assays:
[1] = refractive index (Na D-line) (dimensionless); xn = mol fraction of the nth substance listed; conditions: 100 kPa, Liquid, Standard Abbe refractometry
[2] = xn = mol fraction of the nth substance listed; conditions: 100 kPa, Liquid; for speed of sound: Frequency=3 MHz, Single path-length method; for mass density: Vibrating tube method

CC(=O)CC(C)C [4-methylpentan-2-one] + CC#N
Conditions	mass density, 293.15 K [kg/m3]	mass density, 303.15 K [kg/m3]	mass density, 313.15 K [kg/m3]	refractive index, 293.15 K	refractive index, 303.15 K	refractive index, 313.15 K	speed of sound, 293.15 K [m/s]	speed of sound, 303.15 K [m/s]	speed of sound, 313.15 K [m/s]
[1], x1 = 0.102	–	–	–	1.355	1.35	1.345	–	–	–
[1], x1 = 0.1961	–	–	–	1.363	1.358	1.353	–	–	–
[1], x1 = 0.3082	–	–	–	1.371	1.366	1.361	–	–	–
[1], x1 = 0.4019	–	–	–	1.376	1.371	1.367	–	–	–
[1], x1 = 0.5188	–	–	–	1.381	1.377	1.372	–	–	–
[1], x1 = 0.6001	–	–	–	1.385	1.38	1.375	–	–	–
[1], x1 = 0.7014	–	–	–	1.388	1.384	1.379	–	–	–
[1], x1 = 0.8008	–	–	–	1.391	1.387	1.382	–	–	–
[1], x1 = 0.8801	–	–	–	1.393	1.389	1.384	–	–	–
[1], x1 = 1	–	–	–	1.396	1.391	1.387	–	–	–
[2], x1 = 0.102	786	776	765	–	–	–	1280.4	1239.9	1199.1
[2], x1 = 0.1961	790	779	769	–	–	–	1267.6	1226.3	1185.4
[2], x1 = 0.3082	792	782	772	–	–	–	1255.2	1213.5	1172.5
[2], x1 = 0.4019	794	784	774	–	–	–	1245.9	1204.6	1163.8
[2], x1 = 0.5188	796	787	777	–	–	–	1237.4	1195.8	1155
[2], x1 = 0.6001	797	788	778	–	–	–	1231.4	1190.3	1149.7
[2], x1 = 0.7014	798	789	779	–	–	–	1225.4	1184.5	1144
[2], x1 = 0.8008	799	790	780	–	–	–	1220.8	1179.6	1139.3
[2], x1 = 0.8801	800	791	781	–	–	–	1216.6	1175.9	1135.7
[2], x1 = 1	801	792	782	–	–	–	1212.3	1171.4	1131.4
